According to US20240299352A1, “COMBINATION THERAPIES WITH SETD2 INHIBITORS” (Epizyme, Inc., priority 2021, published 2024):

Experiments:
[1] = system: MINO; experiment: Co-treatment combination study with Cpd. No. 15, CellTiter-Glo viability, Loewe Volume; assay type: cell-based; conditions: in combination with Cpd. No. 15, seven days, mantle cell lymphoma cell line MINO (CRL-3000)
Description: (§1) Mantle cell lymphoma (MCL) and diffuse large B-cell lymphoma (DLBCL) cell line cultures in log-linear growth rate were treated with combinations of Cpd. No. 15 and combination partners according to a co-treatment model. […] No. 15 and the combination partner. […] Each combination was tested in quadruplicate wells. The final concentration of DMSO (vehicle) in the assay was 0.1% v/v. Fifty microliters of cell line suspension were directly dispensed to the assay-ready plates with an automated multichannel dispenser on to 384-well assay-ready plates. Assay plates were incubated for seven days unless otherwise indicated in a humidified atmosphere of 5% CO2 at 37° C. Quantification of the effect of single agents or combinations on cell viability was performed through measurement of cellular adenosine triphosphate (ATP) using a CellTiter-Glo® (Promega, Madison, WI) Luminescent Cell Viability Assay. Luminescence was detected using a SpectraMax M5 microplate reader (Molecular Devices, Sunnyvale, CA). Concentration response plots were generated in GraphPad Prism version 7.0 for Windows, GraphPad Software, (La Jolla, California) and curves fitted to a four-parameter logistic model with variable slope. Percent of inhibition was calculated at each treatment concentration.

[2] = system: Z138; experiment: as above; assay type: cell-based; conditions: in combination with Cpd. No. 15, seven days, mantle cell lymphoma cell line Z138 (CRL-3001)
Description: as §1

[3] = system: REC1; experiment: as above; assay type: cell-based; conditions: in combination with Cpd. No. 15, seven days, mantle cell lymphoma cell line REC1 (CRL-3004)
Description: as §1

[4] = system: MAVER1; experiment: as above; assay type: cell-based; conditions: in combination with Cpd. No. 15, seven days, mantle cell lymphoma cell line MAVER1 (CRL-3008)
Description: as §1

[5] = system: GRANTA519; experiment: as above; assay type: cell-based; conditions: in combination with Cpd. No. 15, seven days, mantle cell lymphoma cell line GRANTA519 (ACC 342)
Description: as §1

[6] = system: JEKO1; experiment: as above; assay type: cell-based; conditions: in combination with Cpd. No. 15, seven days, mantle cell lymphoma cell line JEKO1 (CRL-3006)
Description: as §1

[7] = system: JVM2; experiment: as above; assay type: cell-based; conditions: in combination with Cpd. No. 15, seven days, mantle cell lymphoma cell line JVM2 (CRL-3002)
Description: as §1

[8] = system: diffuse large B-cell lymphoma (DLBCL) cell lines; experiment: Pre-treatment model combination study with Cpd. No. 15 (7 days pre-treatment, then combination; Table G), CellTiter-Glo viability, Loewe Volume; conditions: 7 days pre-treatment with Cpd. No. 15, then combination; for Combination effect with Cpd. No. 15 (Loewe Volume class), Farage: cell line Farage (Cat. No. CRL-2630); for Combination effect with Cpd. No. 15 (Loewe Volume class), HT: cell line HT (Cat. No. CRL-2631); for Combination effect with Cpd. No. 15 (Loewe Volume class), OCILY7: cell line OCILY7 (Cat. No. ACC 688); for Combination effect with Cpd. No. 15 (Loewe Volume class), SUDHL4: cell line SUDHL4 (Cat. No. ACC 495); for Combination effect with Cpd. No. 15 (Loewe Volume class), WILL2: cell line WILL2 (Cat. No. ACC 652)
[9] = system: diffuse large B-cell lymphoma (DLBCL) cell lines; experiment: Co-treatment combination study with Cpd. No. 15, further cell lines (Table F), CellTiter-Glo viability, Loewe Volume; assay type: cell-based
Description: as §1

[10] = system: Pfeiffer; experiment: Co-treatment combination study with Cpd. No. 15, CellTiter-Glo viability, Loewe Volume; assay type: cell-based; conditions: in combination with Cpd. No. 15, seven days, DLBCL cell line Pfeiffer
Description: as §1

[11] = system: SUDHL2; experiment: as above; assay type: cell-based; conditions: in combination with Cpd. No. 15, seven days, DLBCL cell line SUDHL2
Description: as §1

[12] = system: DB; experiment: as above; assay type: cell-based; conditions: in combination with Cpd. No. 15, seven days, DLBCL cell line DB
Description: as §1

[13] = system: DOHH2; experiment: as above; assay type: cell-based; conditions: in combination with Cpd. No. 15, seven days, DLBCL cell line DOHH2
Description: as §1

[14] = system: KARPAS422; experiment: as above; assay type: cell-based; conditions: in combination with Cpd. No. 15, seven days, DLBCL cell line KARPAS422
Description: as §1

[15] = system: SUDHL10; experiment: as above; assay type: cell-based; conditions: in combination with Cpd. No. 15; 5-Day Cotreatment; DLBCL cell line SUDHL10
Description: as §1

[16] = system: WILL2; experiment: as above; assay type: cell-based; conditions: in combination with Cpd. No. 15, seven days, DLBCL cell line WILL2
Description: as §1

[17] = system: TOLEDO; experiment: as above; assay type: cell-based; conditions: in combination with Cpd. No. 15, seven days, DLBCL cell line TOLEDO
Description: as §1

[18] = system: WSUNHL; experiment: as above; assay type: cell-based; conditions: in combination with Cpd. No. 15, seven days, DLBCL cell line WSUNHL
Description: as §1

[19] = system: SUDHL6; experiment: as above; assay type: cell-based; conditions: in combination with Cpd. No. 15, seven days, DLBCL cell line SUDHL6
Description: as §1

[20] = system: SUDHL8; experiment: as above; assay type: cell-based; conditions: in combination with Cpd. No. 15, seven days, DLBCL cell line SUDHL8
Description: as §1

[21] = system: HT; experiment: as above; assay type: cell-based; conditions: in combination with Cpd. No. 15, seven days, DLBCL cell line HT
Description: as §1

Compound | Combination effect (Loewe Volume) MINO [1] | Combination effect (Loewe Volume) Z138 [2] | Combination effect (Loewe Volume) REC1 [3] | Combination effect (Loewe Volume) MAVER1 [4] | Combination effect (Loewe Volume) GRANTA519 [5] | Combination effect (Loewe Volume) JEKO1 [6] | Combination effect (Loewe Volume) JVM2 [7] | Combination effect with Cpd. No. 15 (Loewe Volume class), Farage [8] | Combination effect with Cpd. No. 15 (Loewe Volume class), HT [8] | Combination effect with Cpd. No. 15 (Loewe Volume class), OCILY7 [8] | Combination effect with Cpd. No. 15 (Loewe Volume class), SUDHL4 [8] | Combination effect with Cpd. No. 15 (Loewe Volume class), WILL2 [8] | further results
COc1c(OCCCN2CCOCC2)ccc2c1N=C(NC(=O)c1cnc(N)nc1)N1CCN=C21 [Copanlisib, copanlisib] | Additivity (between 1 and −1: additivity) | Additivity (between 1 and −1: additivity) | Additivity (between 1 and −1: additivity) | Synergy (VLoewe>1: synergy) | Additivity (between 1 and −1: additivity) | Additivity (between 1 and −1: additivity) | Additivity (between 1 and −1: additivity) |  |  |  |  |  | 
O=C(c1cc(Cc2n[nH]c(=O)c3ccccc23)ccc1F)N1CCN(C(=O)C2CC2)CC1 [Olaparib] |  |  |  |  |  |  |  | Synergy (VLoewe>1: synergy) | Synergy (VLoewe>1: synergy) | Additivity (between 1 and −1: additivity) | Synergy (VLoewe>1: synergy) | Synergy (VLoewe>1: synergy) | 
rituximab | No Effect | No Effect | Additivity (between 1 and −1: additivity) | Synergy (VLoewe>1: synergy) | Additivity (between 1 and −1: additivity) | Synergy (VLoewe>1: synergy) | Additivity (between 1 and −1: additivity) |  |  |  |  |  | Combination effect with Cpd. No. 15 (Loewe Volume class), Ri1 ([9]; co-treatment with Cpd. No. 15, cell line Ri1 (Cat. No. 96090512-1VL)): Additivity (between 1 and −1: additivity); Combination effect with Cpd. No. 15 (Loewe Volume class), TMD8 ([9]; co-treatment with Cpd. No. 15, cell line TMD8 (Cat. No. M-097)): No Effect; Combination effect with Cpd. No. 15 (Loewe Volume class), WILL1 ([9]; co-treatment with Cpd. No. 15, cell line WILL1 (Cat. No. ACC 651)): No Effect; Combination effect (Loewe Volume) Pfeiffer [10]: No Effect; Combination effect (Loewe Volume) SUDHL2 [11]: No Effect; Combination effect (Loewe Volume) DB [12]: No Effect; Combination effect (Loewe Volume) DOHH2 [13]: Synergy (VLoewe>1: synergy); Combination effect (Loewe Volume) KARPAS422 [14]: No Effect; Combination effect (Loewe Volume) SUDHL10 [15]: Additivity (between 1 and −1: additivity); Combination effect (Loewe Volume) WILL2 [16]: Additivity (between 1 and −1: additivity); Combination effect (Loewe Volume) TOLEDO [17]: Additivity (between 1 and −1: additivity); Combination effect (Loewe Volume) WSUNHL [18]: Additivity (between 1 and −1: additivity); Combination effect (Loewe Volume) SUDHL6 [19]: Synergy (VLoewe>1: synergy); Combination effect (Loewe Volume) SUDHL8 [20]: Additivity (between 1 and −1: additivity); Combination effect (Loewe Volume) HT [21]: Additivity (between 1 and −1: additivity)
COc1cc(Nc2ncc(F)c(Nc3ccc4c(n3)NC(=O)C(C)(C)O4)n2)cc(OC)c1OC [Tamatinib] |  |  |  |  |  |  |  | Synergy (VLoewe>1: synergy) | Additivity (between 1 and −1: additivity) | Additivity (between 1 and −1: additivity) | Synergy (VLoewe>1: synergy) | Additivity (between 1 and −1: additivity) | 
CC(=O)Nc1cccc(-n2c(=O)n(C3CC3)c(=O)c3c(Nc4ccc(I)cc4F)n(C)c(=O)c(C)c32)c1 [Trametinib] |  |  |  |  |  |  |  | Synergy (VLoewe>1: synergy) | Synergy (VLoewe>1: synergy) | Synergy (VLoewe>1: synergy) | Synergy (VLoewe>1: synergy) |  | 
CC(=O)c1c(C)c2cnc(Nc3ccc(N4CCNCC4)cn3)nc2n(C2CCCC2)c1=O [Palbociclib, palbociclib] | Additivity (between 1 and −1: additivity) | Additivity (between 1 and −1: additivity) | Additivity (between 1 and −1: additivity) | Synergy (VLoewe>1: synergy) | Additivity (between 1 and −1: additivity) | Synergy (VLoewe>1: synergy) | Additivity (between 1 and −1: additivity) |  |  |  |  |  | 
C[C@@H]1COCCN1c1cc(C2([S@](C)(=N)=O)CC2)nc(-c2cc[nH]c3nccc2-3)n1 [AZD6738] |  |  |  |  |  |  |  | Synergy (VLoewe>1: synergy) | Additivity (between 1 and −1: additivity) | Additivity (between 1 and −1: additivity) | Synergy (VLoewe>1: synergy) | No Effect | 
